Marks after values point to notes of the source that are not given here.
Key:
[1] = tested on: patients with hematologic malignancies; design: method as in PMID 31092402; settings: cited from earlier work
[2] = tested on: patients with advanced solid tumors; test: Phase I dose escalation: safety, tolerability, dose-limiting toxicity (CTCAE v4.0)
From the text: Doses were escalated using a 3 + 3 design, which allowed 3 or 4 patients to be initially enrolled in each dose level. […] The MAD was defined as the dose level at which ≥2/3 or ≥2/6 patients experienced dose-limiting toxicity. The RP2D was defined as the next lower dose below the MAD.
DLT included the following drug-related AEs occurring during cycle 1: grade 3 phototoxicity or grade 2 phototoxicity with blistering lasting ≥7 days, if adequate prevention was used; other grades 3 or 4 non-hematologic toxicity (excluding inadequately managed nausea and vomiting, alopecia or grade 3 fatigue lasting <7 days); grade 4 myelosuppression ≥7 days, febrile neutropenia or ≥grade 3 thrombocytopenic bleeding; or other toxicities of concern including those requiring ≥14 days delay in next cycle.
The starting dose was 50 mg/m^2 d1 and 8. An expansion cohort at the RP2D of 10-20 patients with breast cancer and BRCA1/2 (germline) or relevant somatic aberrations was planned.
AEs were assessed according to National Cancer Institute Common Terminology Criteria for Adverse Events (CTCAE) v4.0.

U2OS cells = test: CPD (cyclobutane pyrimidine dimer) immunofluorescence after UVA 125 mJ/cm^2; type: cell-based, Human; settings: 1 h compound exposure
Method: Fig. 5 Comparison of G4 ligand photosensitization. […] Vertical axis, fractional survival, horizontal axis log10 drug concentration (M) (f) Representative images of CPD immunofluorescent staining under UV and drug treatment conditions for U2OS cells, quantified from biological duplicates in (g) (h) Scale bar = 100um. U2OS cells were treated with drug or vehicle control, then immediately irradiated with UVA 125 mJ/cm^2; and fixed 1 h later for immunofluorescence staining with CPD antibody. g Distribution of mean intensity of CPD level per cell (total n = in labels), with two biological repeats per condition. Vertical axis, mean CPD intensity per cell, horizontal axis, conditions (h) WT or KO XPA HAP1 cells assayed for cytotoxicity. Vertical axis, fractional survival (WST-1 assay). The horizontal axis, log10 drug concentration (M). Error bars = standard deviation of the mean. Three biological repeats per condition.
Human epidermal keratinocytes (HEKa) cells were sourced from Thermo Fisher Scientific, and were grown in EpiLife™ Medium with HKGS. HAP WT and XPA knockout cell lines (Horizon Discovery) were cultured in IMDM, 10% FCS. Human HCT116 cells, U2OS cells (ATCC) were grown in McCoy’s 5 A medium with 10% FBS and L-glutamine. All cell lines are mycoplasma free and have been authenticated by STR or SNP profiling. […]

[3] = 325 mg/m^2 d1,8,15, N patients 4
[4] = 650 mg/m^2 d1,8,15, N patients 5
[5] = 40 treated patients, all dose levels
[6] = 475* mg/m^2 d1,8,15, N patients 6

## Cc1cnc(CNC(=O)c2c(=O)c3ccc(N4CCCN(C)CC4)nc3n3c2sc2ccccc23)cn1 [CX-5461]
[1]
  dose-limiting toxicities (kind): palmar–plantar erythrodysesthesia and phototoxicity
[1]; intravenously once every 3 weeks (q3w)
  dose recommended for further study: 170 mg/m^2
[2]; 50 mg/m^2 d1,8, N patients 4
  Diarrhea, any causality, all grades (patients): 2
  Dry eye, any causality, all grades (patients): 1
  Fatigue, any causality, all grades (patients): 4
  Headache, any causality, all grades (patients): 1
  Nausea, any causality, all grades (patients): 3
  Palmar–plantar erythrodysesthesia syndrome, any causality, all grades (patients): 1
  Phototoxicity, any causality, all grades (patients): 2
  Phototoxicity, number in parentheses (undefined in table; fits grade 3–4 count): 1
[2]; 100 mg/m^2 d1,8, N patients 4
  Diarrhea, any causality, all grades (patients): 1
  Dry eye, any causality, all grades (patients): 1
  Eye phototoxicity, any causality, all grades (patients): 1
  Fatigue, any causality, all grades (patients): 3
  Headache, any causality, all grades (patients): 3
  Mucositis oral, any causality, all grades (patients): 2
  Nausea, any causality, all grades (patients): 3
  Palmar–plantar erythrodysesthesia syndrome, any causality, all grades (patients): 1
  Phototoxicity, any causality, all grades (patients): 1
[2]; 150 mg/m^2 d1,8, N patients 4
  Diarrhea, any causality, all grades (patients): 1
  Dry eye, any causality, all grades (patients): 2
  Fatigue, any causality, all grades (patients): 3
  Headache, any causality, all grades (patients): 2
  Mucositis oral, any causality, all grades (patients): 1
  Nausea, any causality, all grades (patients): 4
  Palmar–plantar erythrodysesthesia syndrome, any causality, all grades (patients): 1
  Phototoxicity, any causality, all grades (patients): 1
[2]; 150 mg/m^2 d1,8, N pts 4
  ALT, Grade 3 or 4 (patients): 2
  AST, Grade 3 or 4 (patients): 2
  Alkaline phosphatase, Grade 3 or 4 (patients): 1
  Bilirubin, Grade 3 or 4 (patients): 1
  Neutropenia, Grade 3 or 4 (patients): 1
  Thrombocytopenia, Grade 3 or 4 (patients): 1
[2]; 200 mg/m^2 d1,8, N patients 4
  Diarrhea, any causality, all grades (patients): 2
  Dry eye, any causality, all grades (patients): 1
  Fatigue, any causality, all grades (patients): 2
  Nausea, any causality, all grades (patients): 3
  Phototoxicity, any causality, all grades (patients): 2
[2]; 200 mg/m^2 d1,8, N pts 4
  ALT, Grade 3 or 4 (patients): 1
  AST, Grade 3 or 4 (patients): 1
  Anemia, Grade 3 or 4 (patients): 1
[2]; 250 mg/m^2 d1,8, N patients 3
  Fatigue, any causality, all grades (patients): 2
  Headache, any causality, all grades (patients): 1
  Mucositis oral, any causality, all grades (patients): 1
  Nausea, any causality, all grades (patients): 2
  Palmar–plantar erythrodysesthesia syndrome, any causality, all grades (patients): 2
  Phototoxicity, any causality, all grades (patients): 3
  Phototoxicity, number in parentheses (undefined in table; fits grade 3–4 count): 1
[2]; [3]
  Dry eye, any causality, all grades (patients): 1
  Eye phototoxicity, any causality, all grades (patients): 1
  Fatigue, any causality, all grades (patients): 2
  Nausea, any causality, all grades (patients): 1
  Palmar–plantar erythrodysesthesia syndrome, any causality, all grades (patients): 1
  Phototoxicity, any causality, all grades (patients): 4
  Phototoxicity, number in parentheses (undefined in table; fits grade 3–4 count): 1
[2]; 325 mg/m^2 d1,8,15, N pts 4
  AST, Grade 3 or 4 (patients): 1
  Neutropenia, Grade 3 or 4 (patients): 1
[2]; 325 mg/m^2 d1,8, N patients 3
  Diarrhea, any causality, all grades (patients): 1
  Fatigue, any causality, all grades (patients): 3
  Fatigue, number in parentheses (undefined in table; fits grade 3–4 count): 1
  Nausea, any causality, all grades (patients): 2
  Nausea, number in parentheses (undefined in table; fits grade 3–4 count): 1
  Palmar–plantar erythrodysesthesia syndrome, any causality, all grades (patients): 1
  Phototoxicity, any causality, all grades (patients): 1
[2]; 475 mg/m^2 d1,8, N patients 3
  Eye phototoxicity, any causality, all grades (patients): 1
  Fatigue, any causality, all grades (patients): 2
  Mucositis oral, any causality, all grades (patients): 1
  Nausea, any causality, all grades (patients): 1
  Palmar–plantar erythrodysesthesia syndrome, any causality, all grades (patients): 1
  Phototoxicity, any causality, all grades (patients): 3
[2]; [4]
  Diarrhea, any causality, all grades (patients): 1
  Dry eye, any causality, all grades (patients): 1
  Eye phototoxicity, any causality, all grades (patients): 3
  Fatigue, any causality, all grades (patients): 3
  Fatigue, number in parentheses (undefined in table; fits grade 3–4 count): 1
  Headache, any causality, all grades (patients): 1
  Mucositis oral, any causality, all grades (patients): 2
  Nausea, any causality, all grades (patients): 3
  Palmar–plantar erythrodysesthesia syndrome, any causality, all grades (patients): 1 (1)
  Palmar–plantar erythrodysesthesia syndrome, number in parentheses (undefined in table; fits grade 3–4 count): 1 (1)
  Phototoxicity, any causality, all grades (patients): 3
  Phototoxicity, number in parentheses (undefined in table; fits grade 3–4 count): 1
[2]; 650 mg/m^2 d1,8,15, N pts 5
  Alkaline phosphatase, Grade 3 or 4 (patients): 1
  Neutropenia, Grade 3 or 4 (patients): 2
[2]; 13 patients who received radiotherapy during or following treatment
  toxicity to ionizing radiation: no excess toxicity to ionizing radiation
[2]; 40 treated patients
  Treatment-related Dry eye, Grade 3–4, %: 0%
  Treatment-related Dry eye, Total, %: 10%
  Treatment-related Eye phototoxicity, Grade 1–2, %: 20%
  Treatment-related Eye phototoxicity, Grade 3–4, %: 0%
  Treatment-related Eye phototoxicity, Total, %: 20%
  Treatment-related Headache, Grade 1–2, %: 12.5%
  Treatment-related Headache, Grade 3–4, %: 0%
  Treatment-related Headache, Total, %: 12.5%
  Treatment-related Mucositis oral, Grade 1–2, %: 15%
  Treatment-related Mucositis oral, Grade 3–4, %: 0%
  Treatment-related Mucositis oral, Total, %: 15%
  Treatment-related Nausea, Grade 1–2, %: 42.5%
  Treatment-related Nausea, Grade 3–4, %: 2.5%
  Treatment-related Nausea, Total, %: 45%
  Treatment-related Palmar–plantar erythrodysesthesia, Grade 1–2, %: 20%
  Treatment-related Palmar–plantar erythrodysesthesia, Grade 3–4, %: 2.5%
  Treatment-related Palmar–plantar erythrodysesthesia, Total, %: 22.5%
  Treatment-related Phototoxicity (skin), Grade 3–4, %: 15%
  Treatment-related Phototoxicity (skin), Total, %: 60%
[2]; [5]
  grade 3 or 4 related AE: nausea: 2.5%
  grade 3 or 4 related AE: palmar–plantar erythrodysesthesia syndrome: 2.5%
  grade 3 or 4 related AE: skin phototoxicity: 15%
[2]; [6]
  Diarrhea, any causality, all grades (patients): 1
  Eye phototoxicity, any causality, all grades (patients): 2
  Fatigue, any causality, all grades (patients): 5
  Fatigue, number in parentheses (undefined in table; fits grade 3–4 count): 2
  Headache, any causality, all grades (patients): 2
  Nausea, any causality, all grades (patients): 6
  Palmar–plantar erythrodysesthesia syndrome, any causality, all grades (patients): 1
  Phototoxicity, any causality, all grades (patients): 4
  Phototoxicity, number in parentheses (undefined in table; fits grade 3–4 count): 2
[2]; 475* mg/m^2 d1,8,15, N pts 6
  Anemia, Grade 3 or 4 (patients): 2
[2]; Dose level 9, 650 mg/m^2/dose, Day 1, 8 & 15 Q4 weeks, 5 enrolled, one occurred after cycle 1
  Dose-limiting toxicities (number): 2 **
[2]; d1, 8, 15 (DL9)
  maximal administered dose (MAD): 650 mg/m^2
[2]; days 1, 8 and 15 every 4 weeks, 60-minute intravenous infusion
  recommended phase II dose (RP2D): 475 mg/m^2
[2]; grade 3 phototoxicity (DL0), grade 2 eye phototoxicity (DL8), grade 3 phototoxicity (DL8)
  SAEs considered related to CX-5461: 3
[2]; in 13 patients
  serious AEs (SAEs) reported: Sixteen
[2]; in vivo
  dose-limiting toxicity (kind): phototoxicity
  participants with dose omission because of phototoxicity: six
  participants with dose reductions because of phototoxicity: two
  patients discontinuing therapy because of phototoxicity: one
U2OS cells
  potentiation of CPD formation by UVA: strong potentiation

Source: paper PMC9232501, “Results of the phase I CCTG IND.231 trial of CX-5461 in patients with advanced solid tumors enriched for DNA-repair deficiencies” (Nature Communications, 2022)
